Data on nine compounds can be found in PubChem BioAssay (NCI).

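Results reflect a 48-hour exposure of cells in 96-well plates to compound at five concentrations. Here, GI50 denotes the concentration required for 50% inhibition of growth. TGI: concentration producing complete growth inhibition.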

Holding throughout (experiment): NCI tumour cell line growth inhibition, 48 h
For assay [1], the system named is A549 NSCLC.
Assay [2] has as its system EKVX NSCLC.
The subject of assay [3] is IGROV1 ovarian.
Assay [4] concerns M14 melanoma.
For assay [5], the system named is MOLT-4 leukemia.
For assay [6], the system named is NCI-H460 lung.
Assay [7] deals with OVCAR-4 ovarian.
Assay [8] concerns SK-MEL-28 melanoma.
The test system of assay [9] is SN12C renal.
The test system of assay [10] is UO-31 renal.

As for `C=C1C(=O)O[C@H]2[C@H]1CC/C(C=Nc1c(N)cc(C(F)(F)F)cc1Br)=C\CC[C@@]1(C)O[C@@H]21`, the GI50 in assay [1] is 2.03 µM; in assay [2] it was 1.84 µM; in [3] it was 1.42 µM; in assay [4], 1.71 µM; in [5] it was 0.624 µM; in assay [6], 1.78 µM. Also, the GI50 in [7] is 1.57 µM; in assay [8], 1.88 µM; in [9] it was 1.5 µM; in assay [10], 1.26 µM. Besides, the TGI is 5.11 µM in assay [1]; 5.1 µM in [2]; 3.01 µM in [3]; 3.55 µM in assay [4]; over 100 µM in assay [5]; 3.81 µM in [6]. Moreover, the TGI turned out to be 3.45 µM in assay [7], 3.66 µM in [8], 3.51 µM in assay [9] and 2.52 µM in [10].

Consider `C(=N\Nc1nnn(Cc2ccccc2)n1)/c1ccccc1`, for which the GI50 in assay [1] is 4.7 µM; in assay [2], 12.3 µM; in assay [3], 7.05 µM; in [4], 1.31 µM; in [5] it was 3.82 µM; in assay [6] it was 2.51 µM. In addition, the GI50 in [7] was over 100 µM; in assay [8], 8.47 µM; in assay [9] it was 9.46 µM; in assay [10], 9.68 µM. Besides, the TGI in [1] is over 100 µM; in assay [2], over 100 µM; in [3] it was over 100 µM; in assay [4] it was 26.5 µM; in assay [5], over 100 µM; in assay [6], over 33.8 µM. Also, the TGI in assay [7], in assay [8], in [9] and in [10] was over 100 µM in each case.

Take `CCN(C(=O)/C=C/c1ccco1)c1ccccc1`: the TGI in [1], in assay [2], in assay [3], in [4], in [5] and in assay [6] was over 100 µM throughout. Further, the TGI in assay [7], in assay [8], in assay [9] and in assay [10] was over 100 µM each time.

For `CN(C)CCNC(=O)Cn1ccc(=O)c2c([N+](=O)[O-])cccc21`, the TGI in assay [1], in assay [2], in assay [3], in [4], in assay [5] and in [6] was over 100 µM throughout. For the same compound, the TGI in assay [7], in assay [8], in assay [9] and in assay [10] was over 100 µM throughout.

Regarding `C=CC(OCC)(OCC)OCC`, the TGI in [1], in assay [2], in assay [3], in [4], in [5] and in assay [6] was over 100 µM in each case. In addition, the TGI in assay [7], in assay [8], in assay [9] and in assay [10] was over 100 µM throughout.

On to `CCNC(=O)c1noc(-c2cc(C(C)C)c(O)cc2O)c1-c1ccc(CN2CCOCC2)cc1`, for which the GI50 in assay [1] was 0.0221 µM; in assay [2] it was 5.21 µM; in assay [3], under 0.0224 µM; in assay [4] it was 0.0384 µM; in assay [5], 0.0326 µM; in assay [6], under 0.0152 µM. Besides, the GI50 in assay [7] is 10.9 µM; in assay [8], 0.055 µM; in assay [9] it was 0.0707 µM; in assay [10], 0.0457 µM. For the same compound, the TGI is 22.7 µM in assay [1]; over 100 µM in [2]; over 100 µM in assay [3]; 18.6 µM in assay [4]; over 100 µM in assay [5]; 14.6 µM in assay [6]. The TGI is over 100 µM in assay [7], 22.7 µM in [8], over 100 µM in assay [9] and over 100 µM in [10].

For the compound `CCCCN(CCCC)C(=O)/C(CC(=O)c1cccc2ccccc12)=N\NC(=O)c1cc2ccccc2cc1O`, the TGI in assay [1] was determined as 64.8 µM; in assay [2] it was 50.9 µM; in assay [3], 71.3 µM; in assay [4], 69.8 µM; in assay [5], 42.9 µM; in [6] it was 44.2 µM. Besides, the TGI was 70.5 µM in assay [7], over 100 µM in [8], 52.6 µM in assay [9] and 37.3 µM in assay [10].

Take `COC(=O)C1(O)CC(=O)CCC1c1ccc(OC)cc1` (centres undefined): the TGI in assay [1], in assay [2], in assay [3], in assay [4], in [5] and in assay [6] was over 100 µM in each case. For the same compound, the TGI in assay [7], in assay [8], in assay [9] and in assay [10] was over 100 µM throughout.

Take `C=C1C[C@@H]2CC[C@@]34C[C@H]5O[C@H]6[C@@H](O3)[C@H]3O[C@H](CC[C@@H]3O[C@H]6[C@@H]5O4)CC(=O)C[C@@H]3[C@@H](OC)[C@@H](C[C@H](O)CN)O[C@H]3C[C@H]3O[C@@H](CC[C@@H]1O2)C[C@@H](C)C3=C`: the GI50 in [1] was under 0.01 µM; in [2], under 0.01 µM; in assay [3] it was under 0.01 µM; in assay [4] it was under 0.0106 µM; in assay [5], under 0.01 µM; in [6], under 0.01 µM. Further, the GI50 in assay [7] was 1.03 µM; in [9] it was under 0.01 µM; in assay [10] it was 1.34 µM. In addition, the TGI in [1] was over 100 µM; in assay [2], over 100 µM; in [3], over 100 µM; in assay [4], over 81.9 µM; in assay [5] it was over 100 µM; in assay [6], over 100 µM. Besides, the TGI in [7], in [8], in assay [9] and in [10] was over 100 µM each time.
